ChEMBL document CHEMBL5325413, “Optimization of BAX trigger site activator BTSA1 with improved antitumor potency and in vitro ADMET properties” (Eur J Med Chem, 2023)
Calls of active or inactive are those of the source. No cut-off for these calls is given here.

Legend:
A549 [1] = assay: Induction of apoptosis in human A549 cells assessed as live cells at 10 uM incubated for 48 hrs by Annexin V-FITC/PI staining based flow cytometry analysis (reference value: 96.4%); format: functional
A549 [2] = assay: Antiproliferative activity against human A549 cells assessed as cell growth inhibition incubated for 72 hrs by MTT assay; format: functional
HCT-116 = assay: Antiproliferative activity against human HCT-116 cells assessed as cell growth inhibition incubated for 72 hrs by MTT assay; format: functional
PC-3 = assay: Antiproliferative activity against human PC-3 cells assessed as cell growth inhibition incubated for 72 hrs by MTT assay; format: functional
A549 [3] = assay: Induction of apoptosis in human A549 cells assessed as early apoptotic cells at 10 uM incubated for 48 hrs by Annexin V-FITC/PI staining based flow cytometry analysis (reference value: 0.708%); format: functional
A549 [4] = assay: Induction of apoptosis in human A549 cells assessed as late apoptotic cells at 10 uM incubated for 48 hrs by Annexin V-FITC/PI staining based flow cytometry analysis (reference value: 2.15%); format: functional
A549 [5] = assay: Induction of apoptosis in human A549 cells assessed as dead cells at 10 uM incubated for 48 hrs by Annexin V-FITC/PI staining based flow cytometry analysis (reference value: 0.739%); format: functional
A549 [6] = assay: Antiproliferative activity against human A549 cells assessed as reduction in cell viability at 5 to 25 uM by MTT assay; format: functional, cell-based; settings: dose 5-25 µM, time 24-72 hrs, TDE = time-dependent effect
NCI-H1581 = assay: Antiproliferative activity against human NCI-H1581 cells expressing BAX assessed as cell growth inhibition incubated for 72 hrs by MTT assay; format: functional
MDA-MB-231 = assay: Antiproliferative activity against human MDA-MB-231 cells expressing BAX assessed as cell growth inhibition incubated for 72 hrs by MTT assay; format: functional
K562 = assay: Antiproliferative activity against human K562 cells expressing BAX assessed as cell growth inhibition incubated for 72 hrs by trypan blue cell counting analysis; format: functional
MV4-11 = assay: Antiproliferative activity against human MV4-11 cells expressing BAX assessed as cell growth inhibition incubated for 72 hrs by trypan blue cell counting analysis; format: functional
THP-1 = assay: Antiproliferative activity against human THP-1 cells expressing BAX assessed as cell growth inhibition incubated for 72 hrs by trypan blue cell counting analysis; format: functional
A549 [7] = assay: Inhibition of colony formation in human A549 cells at 20 uM incubated for 2 weeks by crystal violet staining based analysis; format: functional, cell-based
A549 [8] = assay: Induction of apoptosis in human A549 cells assessed as live cells at 20 uM incubated for 48 hrs by Annexin V-FITC/PI staining based flow cytometry analysis (reference value: 95.9 %); format: functional
A549 [9] = assay: Induction of apoptosis in human A549 cells assessed as early apoptotic cells at 20 uM incubated for 48 hrs by Annexin V-FITC/PI staining based flow cytometry analysis (reference value: 1.09 %); format: functional
A549 [10] = assay: Induction of apoptosis in human A549 cells assessed as late apoptotic cells at 20 uM incubated for 48 hrs by Annexin V-FITC/PI staining based flow cytometry analysis (reference value: 2.52%); format: functional
A549 [11] = assay: Induction of apoptosis in human A549 cells assessed as dead cells at 20 uM incubated for 48 hrs by Annexin V-FITC/PI staining based flow cytometry analysis (reference value: 0.535%); format: functional
A549 [12] = assay: Induction of apoptosis in human A549 cells assessed as live cells at 40 uM incubated for 48 hrs by Annexin V-FITC/PI staining based flow cytometry analysis (reference value: 95.9 %); format: functional
A549 [13] = assay: Induction of apoptosis in human A549 cells assessed as late apoptotic cells at 40 uM incubated for 48 hrs by Annexin V-FITC/PI staining based flow cytometry analysis (reference value: 2.52%); format: functional
A549 [14] = assay: Induction of apoptosis in human A549 cells assessed as dead cells at 40 uM incubated for 48 hrs by Annexin V-FITC/PI staining based flow cytometry analysis (reference value: 0.535%); format: functional
A549 [15] = assay: Induction of apoptosis in human A549 cells assessed as total apoptotic cells at 10 uM incubated for 48 hrs by Annexin V-FITC/PI staining based flow cytometry analysis (reference value: 2.86%); format: functional
A549 [16] = assay: Induction of apoptosis in human A549 cells assessed as total apoptotic cells at 20 uM incubated for 48 hrs by Annexin V-FITC/PI staining based flow cytometry analysis (reference value: 4.26%); format: functional
A549 [17] = assay: Induction of apoptosis in human A549 cells assessed as total apoptotic cells at 40 uM incubated for 48 hrs by Annexin V-FITC/PI staining based flow cytometry analysis (reference value: 4.26%); format: functional
A549 [18] = assay: Induction of apoptosis in human A549 cells assessed as cell rounding at 20 to 80 uM incubated for 48 hrs by Hoechst 33342 staining based fluorescence microscopic analysis; format: functional; settings: dose 20-80 µM
A549 [19] = assay: Induction of apoptosis in human A549 cells assessed as formation of apoptotic bodies at 20 to 80 uM incubated for 48 hrs by Hoechst 33342 staining based fluorescence microscopic analysis; format: functional, cell-based; settings: dose 20-80 µM
A549 [20] = assay: Induction of apoptosis in human A549 cells assessed as nuclear fragmentation at 20 to 80 uM incubated for 48 hrs by Hoechst 33342 staining based fluorescence microscopic analysis; format: functional, cell-based; settings: dose 20-80 µM
A549 [21] = assay: Induction of cell cycle arrest in human A549 cells assessed as accumulation of cells at G0/G1 phase at 10 uM incubated for 48 hrs by RNase/PI staining based flow cytometry analysis (reference value: 54.82%); format: functional
A549 [22] = assay: Induction of cell cycle arrest in human A549 cells assessed as accumulation of cells at S phase at 10 uM incubated for 48 hrs by RNase/PI staining based flow cytometry analysis (reference value: 26.01%); format: functional
A549 [23] = assay: Induction of cell cycle arrest in human A549 cells assessed as accumulation of cells at G2/M phase at 10 uM incubated for 48 hrs by RNase/PI staining based flow cytometry analysis (reference value: 18.97%); format: functional
[24] = Metabolic stability in human liver microsomes assessed as parent compound remaining at 100 uM incubated for 60 mins in presence of NADPH by LC-MS/MS analysis
[25] = Metabolic stability in human liver microsomes assessed as parent compound remaining at 100 uM incubated for 60 mins in absence of NADPH by LC-MS/MS analysis
[26] = Metabolic stability in mouse liver microsomes assessed as parent compound remaining at 100 uM incubated for 60 mins in presence of NADPH by LC-MS/MS analysis
[27] = Metabolic stability in mouse liver microsomes assessed as parent compound remaining at 100 uM incubated for 60 mins in absence of NADPH by LC-MS/MS analysis
[28] = Stability in rat plasma assessed as compound remaining measured immediately; format: ADME, cell-free; settings: read-out: Stability
[29] = Stability in rat plasma assessed as compound remaining measured after 10 mins; format: ADME, cell-free; settings: read-out: Stability
[30] = Stability in rat plasma assessed as compound remaining measured after 30 mins; format: ADME, cell-free; settings: read-out: Stability
[31] = Stability in rat plasma assessed as compound remaining measured after 60 mins; format: ADME, cell-free; settings: read-out: Stability
[32] = Stability in rat plasma assessed as compound remaining measured after 120 mins; format: ADME, cell-free; settings: read-out: Stability
[33] = Stability in rat plasma assessed as half life; format: ADME, cell-free
[34] = human, microsomes, 1 h, 100 µM
[35] = mouse, microsomes, 1 h, 100 µM
[36] = mouse, 1 h, 100 µM
in vitro [37] = settings: human, liver microsomes
in vitro [38] = settings: mouse, liver microsomes

## O=C1/C(=N\Nc2nccs2)C(c2ccccc2)=NN1c1nc(-c2ccccc2)cs1
A549 [1]
  Activity: 95.5%
A549 [2]
  GI50: 14.5 µM
HCT-116
  GI50: 12.5 µM
PC-3
  GI50: 14.3 µM
A549 [3]
  Activity: 0.844%
A549 [4]
  Activity: 2.97%
A549 [5]
  Activity: 0.651%
A549 [6]
  Activity: Tde
NCI-H1581
  GI50: 6.22 µM
MDA-MB-231
  GI50: > 20 µM
K562
  GI50: > 4 µM
MV4-11
  GI50: 6.29 µM
THP-1
  GI50: > 10 µM
A549 [7]
  inhibition: Active
A549 [8]
  Activity: 93.6%
A549 [9]
  Activity: 3.21%
A549 [10]
  Activity: 2.7%
A549 [11]
  Activity: 0.486%
A549 [12]
  Activity: 82.2%
A549 [13]
  Activity: 10.2%
A549 [14]
  Activity: 2.82%
A549 [15]
  Activity: 3.81%
A549 [16]
  Activity: 5.91%
A549 [17]
  Activity: 14.92%
A549 [18]
  Activity: Active
A549 [19]
  Activity: Active
A549 [20]
  Activity: Active
A549 [21]
  Activity: 57.42%
A549 [22]
  Activity: 24.77%
A549 [23]
  Activity: 10.12%
[24]
  remaining at 1 h, 100 µM: 55.6%
[25]
  remaining at 1 h, 100 µM: 94.2%
[26]
  remaining at 1 h, 100 µM: 59.4%
[27]
  remaining at 1 h, 100 µM: 84.8%
[28]
  remaining at 0 min: 100%
[29]
  remaining at 10 min: 101%
[30]
  remaining at 0.5 h: 98.2%
[31]
  remaining at 1 h: 100%
[32]
  remaining at 2 h: 98.6%
[33]
  half-life: > 4.82 h
[34]
  CLint: 21.3 µL/min/mg
[35]
  CLint: 15.8 µL/min/mg
[36]
  CLH: 3.76 mL/h/kg
In vitro [37]
  half-life at 1 h, 100 µM: 1.08 h
In vitro [38]
  half-life at 1 h, 100 µM: 1.46 h
